This is an account of results in paper PMC3348135, “Identification of New Agonists and Antagonists of the Insect Odorant Receptor Co-Receptor Subunit” (PLoS ONE, 2012).

Molecules are shown by their SMILES. Where two headings read alike, the source gives them in different places.

The target of data set [1] is T1, Cqui\Orco + Cqui\Or10 (Culex quinquefasciatus, UniProt D5LMR7+Q309I4). As to the kind of experiment: Activation of Cqui\Orco + Cqui\Or10 in Xenopus oocytes, two-electrode voltage clamp. The data set is classed as cell-based. The note with it: for Emax at 100 µM: 100 µM compound, mean ± SEM, n=3-8, read-out: Response amplitude as percentage of response to 100 µM OLC3, Cqui\Orco + Cqui\Or10. How it is done:
(§1) Oocytes were surgically removed from mature Xenopus laevis frogs. Follicle cells were removed by treatment with Collagenase B (Boehringer Mannhem) for 2 hours at room temperature. Capped cRNA encoding each DmOR subunit was generated using mMessage mMachine kits (Ambion). For heteromeric ORs, 25 ng of cRNA encoding each OR subunit was injected into Stage V-VI Xenopus oocytes. For expression of Orco alone, 50 ng of cRNA was injected. Oocytes were incubated at 18°C in Barth’s saline (in mM: 88 NaCl, 1 KCl, 2.4 NaHCO3, 0.3 CaNO3, 0.41 CaCl2, 0.82 MgSO4, 15 HEPES, pH 7.6, and 150 µg/ml ceftazidime) for 2–5 days prior to electrophysiological recording.
(§2) Odorant and Orco ligand induced currents were recorded under two-electrode voltage clamp in Xenopus laevis oocytes expressing ORs, using an automated parallel electrophysiology system (OpusExpress 6000A; Molecular Devices). Oocytes were perfused with ND96 (in mM: 96 NaCl, 2 KCl, 1 CaCl2, 1 MgCl2, 5 HEPES, pH 7.5). Odorant stock solutions (0.5 or 1 M) and Orco ligand stock solutions (100 mM) were prepared in DMSO and diluted in ND96. Unless otherwise noted, applications were for 60 sec at a flow rate of 1.0 ml/min, with extensive washing in ND96 (9 or 20 min at 4.6 ml/min) between applications. Micropipettes were filled with 3 M KCl and had resistances of 0.2−2.0 MΩ. The holding potential was −70 mV. Current responses, filtered (4-pole, Bessel, low pass) at 20 Hz (−3 db) and sampled at 100 Hz, were captured and stored using OpusXpress 1.1 software (Molecular Devices).
(§3) Initial analysis of electrophysiological data was done using Clampfit 9.1 software (Molecular Devices). Curve fitting and statistical analyses were done using Prism 5 (Graphpad). Concentration-response data were fit to the equation: I = Imax/(1+(EC50/X)^n) where I represents the current response at a given concentration of odorant, X; Imax is the maximal response; EC50 is the concentration of agonist yielding a half maximal response; n is the apparent Hill coefficient. Concentration-inhibition data were fit to the equation: I = Imax/(1+(X/IC50)^n) where I represents the current response at a given concentration of inhibitor, X; Imax is the maximal response in the absence of inhibitor; IC50 is the concentration of inhibitor present that still allows a half maximal response from odorant; n is the apparent Hill coefficient. Statistical significance was assessed using a two-tailed unpaired t test, an F test, or a one-way analysis of variance followed by the Bonferroni’s post-test, as appropriate.
Background: Two-electrode voltage clamp holds a large cell at a set potential and records current.

For data set [2], the target named is T1, Cqui\Orco + Cqui\Or10. On the set-up: method as in PMID 20623327. Particulars: read-out: EC50 for activation of Cqui\Orco+Cqui\Or10 by 3-methylindole; cited from earlier work.
A short description of data set [3]: Solubility in recording solution (observation). The data set is classed as physicochemical. Particulars: aqueous recording solution, higher concentrations (OLC2: above 100 µM). As for the experimental part:
as §2

Data set [4] has as its target T2, Dmel\Orco + Dmel\Or35a (Drosophila melanogaster, UniProt Q9VNB5).
T2 construct: expressed in transfected cells; host or cells: Xenopus laevis oocytes (cRNA injection, pGEMHE)
T2 sequence (Q9VNB5 1-486): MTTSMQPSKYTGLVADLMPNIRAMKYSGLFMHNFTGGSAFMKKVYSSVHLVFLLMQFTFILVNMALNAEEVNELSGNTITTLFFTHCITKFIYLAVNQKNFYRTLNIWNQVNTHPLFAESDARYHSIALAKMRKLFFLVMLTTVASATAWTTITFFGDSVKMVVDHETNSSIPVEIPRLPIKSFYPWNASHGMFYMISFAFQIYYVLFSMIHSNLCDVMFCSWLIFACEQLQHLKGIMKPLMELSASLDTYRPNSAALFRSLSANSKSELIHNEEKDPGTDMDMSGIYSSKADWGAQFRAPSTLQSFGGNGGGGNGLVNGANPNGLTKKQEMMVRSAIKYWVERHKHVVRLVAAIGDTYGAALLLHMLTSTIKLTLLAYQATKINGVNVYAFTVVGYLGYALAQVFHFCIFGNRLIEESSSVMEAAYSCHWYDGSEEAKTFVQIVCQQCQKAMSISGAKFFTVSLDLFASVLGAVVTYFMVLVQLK
T2 sequence (Q9V3Q2 1-409 partner): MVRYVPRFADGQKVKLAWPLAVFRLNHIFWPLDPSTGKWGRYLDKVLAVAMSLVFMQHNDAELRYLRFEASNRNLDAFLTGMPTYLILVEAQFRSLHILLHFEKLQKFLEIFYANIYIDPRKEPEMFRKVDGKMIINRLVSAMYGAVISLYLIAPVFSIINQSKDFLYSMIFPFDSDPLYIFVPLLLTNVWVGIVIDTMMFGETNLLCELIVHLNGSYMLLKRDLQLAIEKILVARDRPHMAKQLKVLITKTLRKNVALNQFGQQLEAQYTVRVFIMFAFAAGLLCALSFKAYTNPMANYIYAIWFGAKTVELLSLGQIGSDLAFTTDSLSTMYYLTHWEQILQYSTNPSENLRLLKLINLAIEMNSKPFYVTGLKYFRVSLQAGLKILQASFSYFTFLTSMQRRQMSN
As to the kind of experiment: Agonist activation of Dmel\Orco + Dmel\Or35a in Xenopus oocytes, two-electrode voltage clamp. It counts as cell-based. Particulars: for EC50: concentration-response, responses normalized to 30 µM OLC3; for Emax at 100 µM: read-out: Response amplitude as percentage of response to 100 µM OLC3, Dmel\Orco + Dmel\Or35a. How it is done:
as §1, §2, §3

The next data set relates to Onub\Orco + Onub\Or1. Kind of data set: Agonist activation of Onub\Orco + Onub\Or1 in Xenopus oocytes, two-electrode voltage clamp. It counts as cell-based, Ostrinia nubilalis. Particulars: 100 µM compound; mean ± SEM, n=3-8.
In a further data set the test system is Cqui\Orco. As to the kind of experiment: Agonist activation of homomeric Cqui\Orco in Xenopus oocytes, two-electrode voltage clamp. It counts as cell-based, Culex quinquefasciatus. The note with it: 100 µM compound; mean ± SEM, n=3-8.
The test system of data set [5] is sham (water) injected oocytes. Kind of data set: Response of sham (water) injected oocytes to Orco ligands. The data set is classed as cell-based, Xenopus laevis. The note with it: 100 µM, 60 sec application. How it is done:
as §1, §2

Data set [6] concerns the target T3, Dmel\Orco (Drosophila melanogaster, UniProt Q9VNB5).
T3 construct: expressed in transfected cells; host or cells: Xenopus laevis oocytes (cRNA injection, pGEMHE)
T3 sequence (Q9VNB5 1-486): T2 sequence (Q9VNB5 1-486)
As to the kind of experiment: Agonist activation of homomeric Dmel\Orco in Xenopus oocytes, two-electrode voltage clamp. The data set is classed as cell-based. Particulars: for EC50: concentration-response, responses normalized to 30 µM OLC3, saturation not obtained for OLC3 and VUAA1; for Emax at 100 µM: read-out: Response amplitude as percentage of response to 100 µM OLC3, Dmel\Orco. How it is done: as §1, §2, §3

Data set [7] deals with T3, Dmel\Orco. As to the kind of experiment: Inhibition of OLC12 activation of Dmel\Orco in Xenopus oocytes. The data set is classed as cell-based. Particulars: activated by 30 µM OLC12 (EC39). As for the experimental part: as §1, §2
(§4) In inhibition assays, oocytes were exposed to 60 sec applications of OLC12 with 9 min washes between applications (Fig. 3 and 4) or 60 sec applications of odorant with 20 min washes between applications (Fig. 5). Oocytes were then exposed to a 90 sec application of antagonist candidate, immediately followed by a 60 sec co-application of antagonist candidate and OLC12 or odorant. Oocytes were then exposed to a final 60 sec application of OLC12 or odorant. The current response in the presence of antagonist candidate was compared to the preceding response(s) to OLC12 (or odorant) alone.
as §3

The target of data set [8] is T2, Dmel\Orco + Dmel\Or35a. Kind of data set: Inhibition of OLC12 activation of Dmel\Orco + Dmel\Or35a in Xenopus oocytes. The data set is classed as cell-based. Particulars: activated by 10 µM OLC12 (EC25); read-out: IC50, Dmel\Orco + Dmel\Or35a (activated by 10 µM OLC12). As for the experimental part:
as §1, §2, §4, §3

Data set [9] deals with T2, Dmel\Orco + Dmel\Or35a. As to the kind of experiment: Inhibition of odorant (hexanol) activation of Dmel\Orco + Dmel\Or35a in Xenopus oocytes. The data set is classed as cell-based. Particulars: 3 µM hexanol; OLC2 100 µM, OLC15 50 µM, OLC20 200 µM. How it is done: as §1, §2
In inhibition assays, oocytes were exposed to 60 sec applications of OLC12 with 9 min washes between applications (Fig. 3 and 4) or 60 sec applications of odorant with 20 min washes between applications (Fig. 5). […]
Initial analysis of electrophysiological data was done using Clampfit 9.1 software (Molecular Devices). […] Statistical significance was assessed using a two-tailed unpaired t test, an F test, or a one-way analysis of variance followed by the Bonferroni’s post-test, as appropriate.

T1 sequence (D5LMR7 entry or part of it): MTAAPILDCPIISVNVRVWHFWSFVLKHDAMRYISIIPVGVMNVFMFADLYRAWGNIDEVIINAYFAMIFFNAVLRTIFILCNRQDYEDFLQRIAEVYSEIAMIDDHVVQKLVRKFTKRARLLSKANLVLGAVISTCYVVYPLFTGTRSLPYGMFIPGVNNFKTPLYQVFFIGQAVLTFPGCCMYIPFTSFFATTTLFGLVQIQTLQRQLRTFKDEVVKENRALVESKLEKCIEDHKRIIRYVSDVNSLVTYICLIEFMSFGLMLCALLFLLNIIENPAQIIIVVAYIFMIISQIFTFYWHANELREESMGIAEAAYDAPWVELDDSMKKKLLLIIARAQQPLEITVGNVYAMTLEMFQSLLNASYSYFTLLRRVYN
T1 sequence (Q309I4 entry or part of it): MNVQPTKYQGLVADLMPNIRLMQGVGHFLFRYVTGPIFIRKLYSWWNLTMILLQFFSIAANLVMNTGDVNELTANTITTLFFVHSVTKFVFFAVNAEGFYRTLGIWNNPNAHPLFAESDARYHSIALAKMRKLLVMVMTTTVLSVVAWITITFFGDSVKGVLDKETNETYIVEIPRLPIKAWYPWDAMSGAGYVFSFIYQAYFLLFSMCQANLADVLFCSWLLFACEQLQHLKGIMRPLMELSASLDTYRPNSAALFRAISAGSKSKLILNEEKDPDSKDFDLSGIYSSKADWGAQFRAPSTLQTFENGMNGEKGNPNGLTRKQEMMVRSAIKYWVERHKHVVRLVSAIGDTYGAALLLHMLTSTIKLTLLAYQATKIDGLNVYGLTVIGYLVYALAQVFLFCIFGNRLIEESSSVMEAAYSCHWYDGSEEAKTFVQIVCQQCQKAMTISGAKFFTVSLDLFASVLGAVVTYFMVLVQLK

Broadly, the EC50 is the midpoint of the concentration-response curve. Consider `Cc1c[nH]c2ccccc12` [3-methylindole, reference compound], for which the EC50 is 313 ± 103 nM on Cqui\Orco + Cqui\Or10 [1] (absence of OLC15, read-out: EC50 for 3-MI activation of Cqui\Orco + Cqui\Or10); 275 ± 41 nM at Cqui\Orco + Cqui\Or10 [1] (in presence of 3 µM OLC15, read-out: EC50 for 3-MI activation of Cqui\Orco + Cqui\Or10 in presence of OLC15); 90 ± 17 nM on Cqui\Orco + Cqui\Or10 [2].
Turning to `CCc1ccc(NC(=O)CSc2nnc(-c3ccncc3)n2CC)cc1` [OLC3], the Solubility result in data set [3] is listed as “not fully soluble at higher concentrations”. For the same compound, the values for the EC50 on Dmel\Orco + Dmel\Or35a [4] and on Dmel\Orco [6] were 56 ± 8 µM and 346 ± 126 µM, respectively. Further, the Emax at 100 µM at Dmel\Orco + Dmel\Or35a [4], on Dmel\Orco [6] and on Cqui\Orco + Cqui\Or10 [1] was 100% throughout. Also, in the data set on Onub\Orco + Onub\Or1, the “Response amplitude as percentage of response to 100 µM OLC3, Onub\Orco + Onub\Or1” value is reported as 100%. In the data set with Cqui\Orco, the “Response amplitude as percentage of response to 100 µM OLC3, Cqui\Orco” value (from here on “Response amplitude as percentage … Cqui\Orco”) is on record as 100%. In addition, in data set [5], the “Response of sham (water) injected oocytes” value (“Response of sham” below) is listed as “No responses”.
For orientation: IC50 means the concentration at which inhibition is half-maximal. For `CCCCc1ccc(NC(=O)CSc2nnc(-c3cccnc3)n2CC)cc1` [OLC9], the Emax at 100 µM came out at 5 ± 2% at Dmel\Orco + Dmel\Or35a [4], 0% on Dmel\Orco [6] and 0% at Cqui\Orco + Cqui\Or10 [1]. The “Response amplitude as percentage of response to 100 µM OLC3, Onub\Orco + Onub\Or1” value in the data set on Onub\Orco + Onub\Or1 is recorded as 3 ± 1%. The “Response amplitude as percentage … Cqui\Orco” value with Cqui\Orco is reported as 0%. Moreover, the figures for the IC50 at Dmel\Orco [7] and on Dmel\Orco + Dmel\Or35a [8] were 69 ± 7 µM and 40 ± 9 µM, respectively.
For `CCn1c(SCC(=O)Nc2ccc(C(C)C)cc2)nnc1-c1ccncc1` [OLC12], the figures for the EC50 at Dmel\Orco + Dmel\Or35a [4] and at Dmel\Orco [6] were 18 ± 3 µM and 35 ± 3 µM, respectively. The values for the Emax at 100 µM on Dmel\Orco + Dmel\Or35a [4], at Dmel\Orco [6] and on Cqui\Orco + Cqui\Or10 [1] were 300 ± 41%, 318 ± 12% and 289 ± 41%, respectively. In addition, the “Response amplitude as percentage of response to 100 µM OLC3, Onub\Orco + Onub\Or1” value in the data set on Onub\Orco + Onub\Or1 was 306 ± 33%. In addition, the “Response amplitude as percentage … Cqui\Orco” value with Cqui\Orco was 636 ± 78%. For the same compound, the “Response of sham” value in [5] was “No responses”.
Turning to `CCc1ccc(NC(=O)c2cccs2)cc1` [OLC20], the Emax at 100 µM on Dmel\Orco + Dmel\Or35a [4] stood at 0%; at Dmel\Orco [6], 0%; at Cqui\Orco + Cqui\Or10 [1] it was 11 ± 4%. On Dmel\Orco + Dmel\Or35a [9], the “Inhibition of the hexanol response of Dmel\Orco+Dmel\Or35a” value is given as “substantial inhibition”. The “Response amplitude as percentage … Cqui\Orco” value in the data set on Cqui\Orco was 0%. Moreover, the IC50 came to 57 ± 19 µM against Dmel\Orco [7] and 55 ± 15 µM on Dmel\Orco + Dmel\Or35a [8].
For the compound `CCCCc1ccc(NC(=O)c2cccs2)cc1` [OLC22], the Emax at 100 µM at Dmel\Orco + Dmel\Or35a [4], on Dmel\Orco [6] and at Cqui\Orco + Cqui\Or10 [1] was 0% throughout. Further, in the data set with Cqui\Orco, the “Response amplitude as percentage … Cqui\Orco” value stood at 0%. Besides, the IC50 against Dmel\Orco [7] was 52 ± 18 µM; at Dmel\Orco + Dmel\Or35a [8], 26 ± 4 µM.
As for `CCc1ccc(NC(=O)CSc2nnc(-c3cccnc3)n2CC)cc1` [VUAA1, reference compound], the Solubility entry in data set [3] is given as “not fully soluble at higher concentrations”. In addition, the EC50 at Dmel\Orco + Dmel\Or35a [4] stood at 57 ± 13 µM; at Dmel\Orco [6] it was 190 ± 30 µM. Further, the values for the Emax at 100 µM on Dmel\Orco + Dmel\Or35a [4], on Dmel\Orco [6] and on Cqui\Orco + Cqui\Or10 [1] were 50 ± 9%, 24 ± 7% and 75 ± 3%, respectively. Further, the “Response amplitude as percentage of response to 100 µM OLC3, Onub\Orco + Onub\Or1” value in the data set on Onub\Orco + Onub\Or1 is reported as 60 ± 6%. In the data set with Cqui\Orco, the “Response amplitude as percentage … Cqui\Orco” value was 18 ± 8%. For the same compound, the “Response of sham” value in data set [5] is reported as “No responses”.
